This is an account of results in patent US20230167073A1 (Teijin Pharma Limited, priority 2020, published 2023).

Bounds are passed on as bounds.

This assay has as its target T1, Human TRPC6 (Homo sapiens, UniProt Q9Y210).
T1 construct: expressed in transfected cells
T1 sequence (Q9Y210 1-931): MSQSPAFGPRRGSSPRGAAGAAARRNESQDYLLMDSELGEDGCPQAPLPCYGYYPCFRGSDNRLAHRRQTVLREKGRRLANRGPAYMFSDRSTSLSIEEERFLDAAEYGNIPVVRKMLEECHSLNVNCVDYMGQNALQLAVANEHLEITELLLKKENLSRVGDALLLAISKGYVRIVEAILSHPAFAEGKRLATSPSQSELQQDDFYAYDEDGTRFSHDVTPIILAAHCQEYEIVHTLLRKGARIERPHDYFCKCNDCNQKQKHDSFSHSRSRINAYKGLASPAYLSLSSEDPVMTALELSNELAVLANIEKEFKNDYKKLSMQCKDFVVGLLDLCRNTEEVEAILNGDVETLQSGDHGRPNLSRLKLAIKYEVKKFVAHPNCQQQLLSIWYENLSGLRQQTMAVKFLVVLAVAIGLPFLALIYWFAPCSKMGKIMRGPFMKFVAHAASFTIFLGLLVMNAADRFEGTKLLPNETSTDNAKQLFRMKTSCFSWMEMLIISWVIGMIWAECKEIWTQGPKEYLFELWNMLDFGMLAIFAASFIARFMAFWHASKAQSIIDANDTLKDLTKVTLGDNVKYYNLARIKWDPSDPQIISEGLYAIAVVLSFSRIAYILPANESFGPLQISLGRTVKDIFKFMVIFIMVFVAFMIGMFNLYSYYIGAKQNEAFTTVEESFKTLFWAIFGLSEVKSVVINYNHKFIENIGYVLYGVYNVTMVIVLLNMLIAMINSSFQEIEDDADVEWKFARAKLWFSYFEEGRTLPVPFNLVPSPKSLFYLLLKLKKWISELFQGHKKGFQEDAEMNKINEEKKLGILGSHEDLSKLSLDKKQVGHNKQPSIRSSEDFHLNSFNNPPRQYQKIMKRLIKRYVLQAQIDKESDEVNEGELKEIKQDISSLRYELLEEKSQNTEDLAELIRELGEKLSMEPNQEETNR
Kind of assay: Evaluation of TRPC6 channel inhibitory activity (1), FLIPR Calcium 5 Assay Kit, OAG stimulation (Compound Nos. 1-1293). Format: cell-based. The settings on record: Human TRPC6 stably-expressing cells, OAG 30 μM, FLIPR Calcium 5 Assay Kit; read-out: Inhibitory activity (pIC50 class) (converted). Summed up:
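Stable human TRPC6 line; fluorescent Ca2+ dye loading, then 20 min compound exposure before 30 μM OAG trigger. Peak-minus-baseline signal converted to % inhibition against untreated and unstimulated wells; potency given as pIC50 band.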
For the compound `Cn1nc(-c2cccc(F)c2)cc1Oc1cc(C#N)ccc1-c1ncc([C@H](O)CN)cn1` (stereo in doubt) [compound 404, 4-[5-(2-amino-1-hydroxyethyl)pyrimidin-2-yl]-3-[5-(3-fluorophenyl)-2-methylpyrazol-3 yl]oxybenzonitrile], the IC50 was < 10 nM.
For `Cn1nc(-c2ccccn2)cc1Oc1cc(C#N)cnc1-c1ccc(CN)cc1` [compound 1288, 6-[4-(aminomethyl)phenyl]-5-(2-methyl-5-pyridin-2-ylpyrazol-3-yl)oxypyridine-3-carbonitrile] the value was > 1000 nM.
The value for `N#Cc1ccc(-c2ncc(CN)cn2)c(Oc2cnnc(OC3CCCC3)c2)c1` [compound 818, 4-[5-(aminomethyl)pyrimidin-2-yl]-3-(6-cyclopentyloxypyridazin-4-yl)oxybenzonitrile] was 10 to 1000 nM; that for `COC(c1cc(-c2ccccc2)no1)c1cc(C#N)ccc1-c1ccc(CCN)cc1` (stereo not drawn) [compound 1231, 4-[4-(2-aminoethyl)phenyl]-3-[methoxy-(3-phenyl-1,2-oxazol-5-yl)methyl]benzonitrile] was 10 to 1000 nM.
Consider `Cc1nc(Oc2cc(C#N)ccc2-c2nc(C)c(C(O)CN(C)C)s2)cc(-c2ccccc2)n1` (stereo not drawn) [Compound 98, 4-[5-[2-(dimethylamino)-1-hydroxyethyl]-4-methyl-1,3-thiazol-2-yl]-3-(2-methyl-6-phenylpyrimidin-4-yl)oxybenzonitrile], for which the IC50 was > 1000 nM.
`Cn1nc(C2CCC2)cc1Oc1cc(C#N)ccc1-c1ncc(C(O)CN)s1` (stereo not drawn) [Compound 238, 4-[5-(2-amino-1-hydroxyethyl)-1,3-thiazol-2-yl]-3-(5-cyclobutyl-2-methylpyrazol-3-yl)oxybenzonitrile]: the IC50 is < 10 nM.
In the case of `Cn1nc(C2CC2)cc1Oc1cc(C#N)ccc1-n1cc2c(n1)CCNC2` [compound 776, 3-(5-cyclopropyl-2-methylpyrazol-3-yl)oxy-4-(4,5,6,7-tetrahydropyrazolo[4,3-c]pyridin-2-yl)benzonitrile], the IC50 is > 1000 nM.
For `CC(C)Cc1cn(Cc2cc(C#N)ccc2-c2ncc(CCN)cn2)nn1` [compound 1184, 4-[5-(2-aminoethyl)pyrimidin-2-yl]-3-[[4-(2-methylpropyl)triazol-1-yl]methyl]benzonitrile] the value was < 10 nM.
For `Cc1nc(Oc2cc(C#N)ccc2-c2ncc(CN)cn2)cc(N2CCCC2)n1` [compound 658, 4-[5-(aminomethyl)pyrimidin-2-yl]-3-(2-methyl-6-pyrrolidin-1-ylpyrimidin-4-yl)oxybenzonitrile] the value was 10 to 1000 nM; for `Cc1nc(Oc2cc(C#N)ccc2-c2ncc(CCN)cn2)cc(N2CCC[C@H]2C#N)n1` [compound 674, (2S)-1-[6-[2-[5-(2-aminoethyl)pyrimidin-2-yl]-5-cyanophenoxy]-2-methylpyrimidin-4-yl]pyrrolidine-2-carbonitrile], 10 to 1000 nM; for `Cc1nn(CC(C)C)cc1Cc1cc(C#N)ccc1-c1ncc(CCN)cn1` [compound 1199, 4-[5-(2-aminoethyl)pyrimidin-2-yl]-3-[[3-methyl-1-(2-methylpropyl)pyrazol-4-yl]methyl]benzonitrile], < 10 nM.
For `Cc1nc(C(C)C)cn1Cc1cc(C#N)ccc1-c1ncc(CCN)cn1` [compound 1171, 4-[5-(2-aminoethyl)pyrimidin-2-yl]-3-[(2-methyl-4-propan-2-ylimidazol-1-yl)methyl]benzonitrile] the value was 10 to 1000 nM; for `COC(=O)c1ccccc1-c1cc(Oc2cc(C#N)ccc2-c2ccc(CCN)cc2)cnn1` [Compound 120, methyl 2-[5-[2-[4-(2-aminoethyl)phenyl]-5-cyanophenoxy]pyridazin-3-yl]benzoate], < 10 nM.
In the case of `NCCc1cnc(-c2ccc(F)cc2Oc2cnn(CC(F)(F)F)c2)nc1` [compound 1019, 2-[2-[4-fluoro-2-[1-(2,2,2-trifluoroethyl)pyrazol-4-yl]oxyphenyl]pyrimidin-5-yl]ethanamine], the IC50 was 10 to 1000 nM.
With `Cn1nc(N2CCOCC2)cc1C(=O)c1cc(C#N)ccc1-c1ccc(CN)cn1` [compound 1029, 4-[5-(aminomethyl)pyridin-2-yl]-3-(2-methyl-5-morpholin-4-ylpyrazole-3-carbonyl)benzonitrile], the IC50 was < 10 nM.
For `Cn1nc(N2CCCC2=O)cc1Oc1cc(C#N)ccc1-c1ccc(CCN)cn1` [compound 755, 4-[5-(2-aminoethyl)pyridin-2-yl]-3-[2-methyl-5-(2-oxopyrrolidin-1-yl)pyrazol-3-yl]oxybenzonitrile] the value was 10 to 1000 nM; for `Cn1nc2c(c1Oc1cc(C#N)ccc1-c1ncc(CN)cn1)COCC2` [compound 679, 4-[5-(aminomethyl)pyrimidin-2-yl]-3-[(2-methyl-6,7-dihydro-4H-pyrano[4,3-c]pyrazol-3-yl)oxy]benzonitrile], > 1000 nM.
The value for `Cc1nc(Oc2cc(C#N)ccc2-n2cc(C(=O)CN)cn2)cc(-c2ccccc2)n1` [Compound 146, 4-[4-(2-aminoacetyl)pyrazol-1-yl]-3-(2-methyl-6-phenylpyrimidin-4-yl)oxybenzonitrile] was > 1000 nM.
For `Cc1nc(Oc2cc(C#N)ccc2-c2ccc(CCN)cc2)cc(-c2ncco2)n1` [Compound 34, 4-[4-(2-aminoethyl)phenyl]-3-[2-methyl-6-(1,3-oxazol-2-yl)pyrimidin-4-yl]oxybenzonitrile] the value was 10 to 1000 nM; for `Cc1nc(Oc2cc(C#N)ccc2-c2ccc(C(O)CN)c(O)c2)cc(N2CCOCC2)n1` (stereo not drawn) [Compound 152, 4-[4-(2-amino-1-hydroxyethyl)-3-hydroxyphenyl]-3-(2-methyl-6-morpholin-4-ylpyrimidin-4-yl)oxybenzonitrile], 10 to 1000 nM; for `CCN(CC)c1cc(Oc2cc(C#N)ccc2-c2ncc(CN)cn2)n(C)n1` [compound 655, 4-[5-(aminomethyl)pyrimidin-2-yl]-3-[5-(diethylamino)-2-methylpyrazol-3-yl]oxybenzonitrile], < 10 nM.
On to `N#Cc1ccc(-c2ccc(CCN)cn2)c(C(=O)c2sc(N3CCOCC3)nc2C(F)(F)F)c1` [compound 1077, 4-[5-(2-aminoethyl)pyridin-2-yl]-3-[2-morpholin-4-yl-4-(trifluoromethyl)-1,3-thiazole-5-carbonyl]benzonitrile], for which the IC50 is < 10 nM.
Regarding `Cc1nc(Oc2cc(C#N)ccc2-c2ncc(CCN)cn2)cc(OC2COC2)n1` [compound 886, 4-[5-(2-aminoethyl)pyrimidin-2-yl]-3-[2-methyl-6-(oxetan-3-yloxy)pyrimidin-4-yl]oxybenzonitrile], the IC50 is > 1000 nM.
For `Cn1nc(-c2cccc(F)c2)cc1Oc1cc(C#N)ccc1-c1ccc(CCN)cn1` [Compound 199, 4-[5-(2-aminoethyl)pyridin-2-yl]-3-[5-(3-fluorophenyl)-2-methylpyrazol-3-yl]oxybenzonitrile] the value was < 10 nM; for `Cc1cc(Oc2cc(C#N)ccc2-c2ccc([C@H](O)CN)cn2)cc(-c2ncccn2)n1` [compound 692, 4-[5-[(1S)-2-amino-1-hydroxyethyl]pyridin-2-yl]-3-(2-methyl-6-pyrimidin-2-ylpyridin-4-yl)oxybenzonitrile], > 1000 nM.
For `CC(C)Nc1cc(Oc2cc(C#N)ccc2-c2ncc(CN)cn2)cnn1` [compound 764, 4-[5-(aminomethyl)pyrimidin-2-yl]-3-[6-(propan-2-ylamino)pyridazin-4-yl]oxybenzonitrile] the value was 10 to 1000 nM.
`Cc1cc(Oc2cc(C#N)ccc2-c2ncc(CCN)cn2)cc(C)n1` [compound 438, 4-[5-(2-aminoethyl)pyrimidin-2-yl]-3-(2,6-dimethylpyridin-4-yl)oxybenzonitrile]: the IC50 was 10 to 1000 nM.
For the compound `CCN(CC)c1cc(Oc2cc(F)ccc2-c2ncc(CN)cn2)n(C)n1` [compound 992, 5-[2-[5-(aminomethyl)pyrimidin-2-yl]-5-fluorophenoxy]-N,N-diethyl-1-methylpyrazole-3-amine], the IC50 was < 10 nM.
For `Cc1nc(Oc2cc(C#N)ccc2-c2ncc(CN)cn2)cc(N2CCO[C@@H](C)C2)n1` [compound 708, 4-[5-(aminomethyl)pyrimidin-2-yl]-3-[2-methyl-6-[(2S)-2-methylmorpholin-4-yl]pyrimidin-4-yl]oxybenzonitrile] the value was < 10 nM.
Consider `Cc1cc(Oc2cc(C#N)ccc2-c2ccc(CC(C)(C)NCC(=O)N(C)C)cn2)cc(N2CCOCC2)n1` [compound 840, 2-[[1-[6-[4-cyano-2-(2-methyl-6-morpholin-4-ylpyridin-4-yl)oxyphenyl]pyridin-3-yl]-2-methylpropan-2-yl]amino]-N,N-dimethylacetamide], for which the IC50 is > 1000 nM.
